PMC7738871, “Covalent modification of Keap1 at Cys77 and Cys434 by pubescenoside a suppresses oxidative stress-induced NLRP3 inflammasome activation in myocardial ischemia-reperfusion injury” (Theranostics, 2021)

Experiments:
ROS in RAW264.7 cells = assay: Intracellular ROS (DCFH-DA), LPS plus ATP macrophages; format: cell-based
Protocol: The fluorescent probe DCFH-DA was used to measure intracellular ROS levels. RAW264.7 cells were treated with 100 μg/mL LPS plus ATP as mentioned above. H9c2 cells underwent OGD/R. After the appropriate treatment, the cells were incubated with DCFH-DA at a concentration of 10 μM for 30 min. The cells were washed with PBS three times. A fluorescence microscope and microplate reader were used to measure the level of DCFH-DA fluorescence at the excitation wavelength of 488 nm and the emission wavelength of 525 nm.

Keap1 C273S = biological target: T1, Keap1 C273S (Homo sapiens, UniProt Q14145, C273S); assay: ITC titration of PBA with Keap1-C273S; format: binding; settings: 25 ℃
T1 construct: His (N); made in house; host or cells: E. coli BL21 (DE3)
Protocol: (§1) The Keap1 was amplified by PCR using a human cDNA library, and was subcloned into the vector pET28-TEV, which contained one tobacco etch virus (TEV) protease cleavage site at the upstream multiple cloning site. The protein was expressed in E. coli BL21 (DE3) cells and incubated at 37 °C until the OD600 value reached 0.6, using 0.2 mM isopropyl β-D-1-thiogalactopyranoside (IPTG) overnight induction at 18 °C. The cells were isolated by centrifugation, resuspended in ice-cold lysis buffer and lysed by cryogenic overpressure cell breaker at 1,200 psi. The lysates were centrifuged for 60 min at 14,000 rpm to obtain the supernatant. Gravity flow purification of Keap1 protein was obtained at room temperature using 1 mL of Ni-NTA and eluted in buffer containing 250 mM imidazole, followed by 1 mL of HiTrap QHP for the second step purification. The final protein was purified and validated by Superdex 200 10/300GL resin.
(§2) The mutant plasmid DNA was obtained by PCR. The PCR products were cleaved by DpnI restriction enzymes. The restriction endonuclease-cleaved mixture was subsequently transformed into E. coli DH5α. Colonies were evaluated by colony PCR and sequenced. The mutant plasmid was transformed into E. coli BL21 (DE3) after successful sequencing. The steps for expression and purification of all recombinants were described above.
(§3) Isothermal calorimetry (ITC) titration experiments were performed at 25 °C. WT Keap1, Keap1 mutants and PBA were dissolved in binding buffer (40 mM Tris-HCl pH 8.0, 250 mM NaCl). In a typical experiment, 60 μL of PBA (1 mM) was injected 19 times at 2-min intervals from a stirring syringe into the sample cell containing 300 μL of WT protein or mutants (30 μM). The first injection was 0.4 μL of PBA, and the subsequent 18 injections were 2 μL each time. The site-binding models were determined by using MicroCal Origin software.

Keap1 C77S = biological target: T2, Keap1 C77S (Homo sapiens, UniProt Q14145, C77S); assay: ITC titration of PBA with Keap1-C77S; format: binding; settings: 25 ℃
T2 construct: His (N); made in house; host or cells: E. coli BL21 (DE3)
Protocol: as §1, §2, §3

[1] = system: primary neonatal mouse cardiomyocytes; assay: MTT cytotoxicity, primary cardiomyocytes; format: cell-based; settings: under 240 μM, 48 h
Protocol: The heart was removed from the neonatal C57BL/6 mice and cut into 1 mm^3 pieces in ice […] buffer. The tissues were digested with the mixture of 0.125% trypsin (Gibco, 15090-046) and 0.1% type II collagenase (Gibco, 17101-015) 6 min at 37 °C for three times until the tissues were completely digested. The cells were harvested and seeded in a dish. After 90 min of incubation, the cell culture medium was collected and centrifuged. The centrifuged cardiomyocytes were harvested, seeded on 0.1 % gelatin-coated culture plates with DMEM containing 10% FBS and […] Brdu, and incubated in a 37°C incubator.
Cell viability was determined by MTT assays. PBA was prepared to a stock solution dissolved in dimethyl sulfoxide (DMSO). RAW264.7, H9c2 cells, primary mouse cardiomyocytes were treated with different doses of PBA, and DMSO only as control for 48 h for the toxicity. In addition, H9c2 cells or primary mouse cardiomyocytes were treated with the indicated doses of PBA, diazoxide as positive control, DMSO only as control, then cultured with or without OGD/R treatment. At the end of the experiments, MTT was added into each well at the concentration of 0.5 mg/ml, and incubated at 37 °C for 4 h. […] And the solution was measured at the absorbance of 490 nm by a spectrophotometer (Thermo Fisher Scientific, MA, USA). […]

Keap1 C77S/C434S = biological target: T3, Keap1 C77S/C434S (Homo sapiens, UniProt Q14145, C434S/C77S); assay: ITC titration of PBA with Keap1-C77S/C434S; format: binding
T3 construct: His (N); made in house; host or cells: E. coli BL21 (DE3)
Protocol: as §1, §2, §3

Keap1 WT = biological target: T4, Keap1 WT (Homo sapiens, UniProt Q14145); assay: ITC titration of PBA with Keap1-WT; format: binding; settings: 25 ℃
T4 construct: His (N); made in house; host or cells: E. coli BL21 (DE3)
Protocol: as §1, §3

[2] = ITC, 25 ℃, Keap1 C77S/C434S double mutant

T3 sequence (Q14145 whole entry C77S/C434S): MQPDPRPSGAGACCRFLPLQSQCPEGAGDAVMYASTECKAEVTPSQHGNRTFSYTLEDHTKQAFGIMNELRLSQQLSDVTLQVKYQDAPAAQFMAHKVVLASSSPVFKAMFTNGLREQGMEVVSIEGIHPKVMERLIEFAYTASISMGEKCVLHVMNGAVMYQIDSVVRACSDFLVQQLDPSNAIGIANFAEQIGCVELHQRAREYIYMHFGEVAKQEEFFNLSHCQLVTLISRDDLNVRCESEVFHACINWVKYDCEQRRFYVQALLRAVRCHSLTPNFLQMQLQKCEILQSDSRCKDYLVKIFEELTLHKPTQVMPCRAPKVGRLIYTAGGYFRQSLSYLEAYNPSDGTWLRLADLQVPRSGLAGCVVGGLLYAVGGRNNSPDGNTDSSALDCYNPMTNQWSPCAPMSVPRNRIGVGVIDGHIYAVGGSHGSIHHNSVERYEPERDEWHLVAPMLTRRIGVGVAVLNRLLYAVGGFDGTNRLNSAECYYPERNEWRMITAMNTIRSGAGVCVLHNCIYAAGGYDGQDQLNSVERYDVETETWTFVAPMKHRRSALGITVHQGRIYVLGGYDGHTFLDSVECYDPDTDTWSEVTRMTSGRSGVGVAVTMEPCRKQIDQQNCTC
T4 sequence (Q14145 whole entry): as the sequence (Q14145 whole entry C77S/C434S) above, with S77C, S434C counted along it
T1 sequence (Q14145 whole entry C273S): as the sequence (Q14145 whole entry C77S/C434S) above, with S77C, C273S, S434C counted along it
T2 sequence (Q14145 whole entry C77S): as the sequence (Q14145 whole entry C77S/C434S) above, with S434C counted along it

C=C(COC(=O)C=Cc1ccc(O)c(O)c1)C(O)COC1OC(CO)C(O)C(O)C1O (stereo not shown) [PBA, pubescenoside A]
LPS plus ATP-induced ROS (ROS in RAW264.7 cells): significantly suppress | Kd (Keap1 C273S): 3.8 µM | T△S (Keap1 C273S): 3.53 ± 0.00 kcal/mol | △G (Keap1 C273S): -7.40 ± 0.00 kcal/mol | △H (Keap1 C273S): -3.87 ± 0.271 kcal/mol | Kd (Keap1 C77S): 19.5 µM | T△S (Keap1 C77S): 0.78 ± 0.00 kcal/mol | △G (Keap1 C77S): -6.43 ± 0.00 kcal/mol | △H (Keap1 C77S): -5.65 ± 0.866 kcal/mol | cell toxicity (MTT) [1]: did not exhibit any cell toxicity | Kd (Keap1 C77S/C434S; [2]): 38.6 µM | T△S (Keap1 C77S/C434S; [2]): 1.11 ± 0.00 kcal/mol | △G (Keap1 C77S/C434S; [2]): -6.03 ± 0.00 kcal/mol | △H (Keap1 C77S/C434S; [2]): -4.92 ± 0.637 kcal/mol | Kd weaker than that of the WT (Keap1 C77S/C434S; double mutant Cys77S/Cys434S vs WT Keap1): ~ 15 fold | Kd (Keap1 WT): 2.61 µM | T△S (Keap1 WT): 4.31 ± 0.00 kcal/mol | △G (Keap1 WT): -7.62 ± 0.00 kcal/mol | △H (Keap1 WT): -3.31 ± 0.199 kcal/mol
